Assay results taken from publication PMC3766860, “Two Novel Tyrosinase Inhibitory Sesquiterpenes Induced by CuCl2 from a Marine-Derived Fungus Pestalotiopsis sp. Z233” (Marine Drugs, 2013).

Target: Mushroom tyrosinase
Assay: o-diphenolase assay of mushroom tyrosinase, L-DOPA substrate, DOPAchrome absorbance at […] nm
Assay type: biochemical

Structure (SMILES) | IC50 [µM]
CC(=O)OC[C@]12[C@H](OC(C)=O)[C@H](O)C[C@H](C)[C@]1(OC(C)=O)[C@@H](OC(C)=O)[C@@H](C(C)(C)O)C[C@H]2OC(=O)c1ccccc1 (relative stereo) [compound 1, 1β,5α,6α,14-tetraacetoxy-9α-benzoyloxy-7βH-eudesman-2β,11-diol] | 14.8
CC(=O)O[C@@]12C[C@@H](C(C)(C)O)C[C@@H](OC(=O)c3ccccc3)[C@@]1(CO)[C@H](O)[C@H](O)C[C@@]2(C)OC(C)=O (relative stereo) [compound 2, 4α,5α-diacetoxy-9α-benzoyloxy-7βH-eudesman-1β,2β,11,14-tetraol] | 22.3
